Data as given in PubChem BioAssay (NCI).
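Where inhibition never reached the appropriate level, the endpoint shown equals the highest concentration tested. Otherwise, values were interpolated linearly from a five-concentration, 48-hour dose response in 96-well plates. Abbreviation: GI50, concentration required for 50% inhibition of growth. TGI: total growth inhibition.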

Experiments:
Experiment in all cases: inhibition of tumour cell growth, NCI panel, 48 h
HOP-92 NSCLC = tested on: HOP-92 NSCLC
NCI-H460 lung = tested on: NCI-H460 lung
MCF7 breast = tested on: MCF7 breast
DU-145 prostate = tested on: DU-145 prostate
TK-10 renal = tested on: TK-10 renal
ACHN renal = tested on: ACHN renal
HOP-62 NSCLC = tested on: HOP-62 NSCLC
NCI-H522 lung = tested on: NCI-H522 lung
MOLT-4 leukemia = tested on: MOLT-4 leukemia
A549 NSCLC = tested on: A549 NSCLC
HT29 colon = tested on: HT29 colon
SK-MEL-5 melanoma = tested on: SK-MEL-5 melanoma
SF-539 CNS = tested on: SF-539 CNS
RPMI-8226 leukemia = tested on: RPMI-8226 leukemia
OVCAR-3 ovarian = tested on: OVCAR-3 ovarian
HCT-15 colon = tested on: HCT-15 colon
LOX IMVI melanoma = tested on: LOX IMVI melanoma
NCI-H226 lung = tested on: NCI-H226 lung
CAKI-1 renal = tested on: CAKI-1 renal
BT-549 breast = tested on: BT-549 breast
CCRF-CEM leukemia = tested on: CCRF-CEM leukemia
A498 renal = tested on: A498 renal
M14 melanoma = tested on: M14 melanoma
SNB-75 CNS = tested on: SNB-75 CNS
MDA-MB-435 = tested on: MDA-MB-435
T-47D breast = tested on: T-47D breast
OVCAR-4 ovarian = tested on: OVCAR-4 ovarian
PC-3 prostate = tested on: PC-3 prostate
NCI/ADR-RES ovarian = tested on: NCI/ADR-RES ovarian
SW-620 colon = tested on: SW-620 colon
RXF 393 renal = tested on: RXF 393 renal
NCI-H23 lung = tested on: NCI-H23 lung
786-0 renal = tested on: 786-0 renal
COLO 205 colon = tested on: COLO 205 colon
UACC-62 melanoma = tested on: UACC-62 melanoma
K-562 leukemia = tested on: K-562 leukemia
SF-295 CNS = tested on: SF-295 CNS
SK-OV-3 ovarian = tested on: SK-OV-3 ovarian
UO-31 renal = tested on: UO-31 renal
HCC-2998 colon = tested on: HCC-2998 colon
OVCAR-8 ovarian = tested on: OVCAR-8 ovarian
IGROV1 ovarian = tested on: IGROV1 ovarian
SN12C renal = tested on: SN12C renal
HCT-116 colon = tested on: HCT-116 colon
U251 CNS = tested on: U251 CNS
SNB-19 CNS = tested on: SNB-19 CNS
SK-MEL-28 melanoma = tested on: SK-MEL-28 melanoma
MALME-3M melanoma = tested on: MALME-3M melanoma
SK-MEL-2 melanoma = tested on: SK-MEL-2 melanoma
SF-268 CNS = tested on: SF-268 CNS
KM12 colon = tested on: KM12 colon
OVCAR-5 ovarian = tested on: OVCAR-5 ovarian
UACC-257 melanoma = tested on: UACC-257 melanoma
HS 578T breast = tested on: HS 578T breast
MDA-MB-231 breast = tested on: MDA-MB-231 breast
SR leukemia = tested on: SR leukemia

C[C@@H]1CC[C@H]2C(CN(C)CC3=C(C(F)(F)F)O[C@@H]4O[C@@]5(C)CC[C@H]6[C@H](C)CC[C@@H]3[C@@]46OO5)=C(C(F)(F)F)O[C@@H]3O[C@@]4(C)CC[C@@H]1[C@]32OO4
GI50 (HOP-92 NSCLC): 11.4 µM | TGI (HOP-92 NSCLC): > 94.4 µM | GI50 (NCI-H460 lung): 1320 nM | TGI (NCI-H460 lung): > 56.9 µM | GI50 (MCF7 breast): 1560 nM | TGI (MCF7 breast): > 100 µM | GI50 (DU-145 prostate): 2690 nM | TGI (DU-145 prostate): 16.8 µM | GI50 (TK-10 renal): 4.93 µM | TGI (TK-10 renal): > 54.2 µM | GI50 (ACHN renal): 1810 nM | TGI (ACHN renal): 14.9 µM | GI50 (HOP-62 NSCLC): 34.4 µM | TGI (HOP-62 NSCLC): > 100 µM | GI50 (NCI-H522 lung): 2670 nM | GI50 (MOLT-4 leukemia): > 25.4 µM | TGI (MOLT-4 leukemia): > 100 µM | GI50 (A549 NSCLC): 1580 nM | TGI (A549 NSCLC): > 45.4 µM | GI50 (HT29 colon): 2760 nM | TGI (HT29 colon): > 100 µM | GI50 (SK-MEL-5 melanoma): 1860 nM | TGI (SK-MEL-5 melanoma): 18.9 µM | GI50 (SF-539 CNS): 488 nM | TGI (SF-539 CNS): > 100 µM | GI50 (RPMI-8226 leukemia): 820 nM | TGI (RPMI-8226 leukemia): > 49.6 µM | GI50 (OVCAR-3 ovarian): 419 nM | TGI (OVCAR-3 ovarian): 12.1 µM | GI50 (HCT-15 colon): 506 nM | TGI (HCT-15 colon): > 100 µM | GI50 (LOX IMVI melanoma): 715 nM | TGI (LOX IMVI melanoma): 1980 nM | GI50 (NCI-H226 lung): 3.71 µM | TGI (NCI-H226 lung): > 64.9 µM | GI50 (CAKI-1 renal): 3.19 µM | TGI (CAKI-1 renal): 18.2 µM | GI50 (BT-549 breast): 14.3 µM | TGI (BT-549 breast): 54.4 µM | GI50 (CCRF-CEM leukemia): 1310 nM | TGI (CCRF-CEM leukemia): > 42.9 µM | GI50 (A498 renal): 3.92 µM | TGI (A498 renal): > 100 µM | GI50 (M14 melanoma): 2690 nM | TGI (M14 melanoma): > 100 µM | TGI (SNB-75 CNS): > 23.9 µM | GI50 (MDA-MB-435): 549 nM | TGI (MDA-MB-435): 40.2 µM | GI50 (T-47D breast): 236 nM | TGI (T-47D breast): 39.7 µM | GI50 (OVCAR-4 ovarian): 1120 nM | TGI (OVCAR-4 ovarian): 56.6 µM | GI50 (PC-3 prostate): 231 nM | TGI (PC-3 prostate): > 100 µM | GI50 (NCI/ADR-RES ovarian): 16.8 µM | TGI (NCI/ADR-RES ovarian): > 59.2 µM | GI50 (SW-620 colon): 650 nM | TGI (SW-620 colon): 53.3 µM | GI50 (RXF 393 renal): 2830 nM | TGI (RXF 393 renal): > 100 µM | GI50 (NCI-H23 lung): 818 nM | TGI (NCI-H23 lung): 27 µM | GI50 (786-0 renal): 4.03 µM | TGI (786-0 renal): 41.7 µM | GI50 (COLO 205 colon): 728 nM | TGI (COLO 205 colon): > 100 µM | GI50 (UACC-62 melanoma): 12.4 µM | TGI (UACC-62 melanoma): > 100 µM | TGI (K-562 leukemia): > 42.6 µM | TGI (SF-295 CNS): > 51.5 µM | GI50 (SK-OV-3 ovarian): > 100 µM | TGI (SK-OV-3 ovarian): > 100 µM | GI50 (UO-31 renal): 2860 nM | GI50 (HCC-2998 colon): 18.9 µM | TGI (HCC-2998 colon): > 59.5 µM | GI50 (OVCAR-8 ovarian): 1580 nM | TGI (OVCAR-8 ovarian): > 53.6 µM | GI50 (IGROV1 ovarian): 2300 nM | TGI (IGROV1 ovarian): > 23.9 µM | GI50 (SN12C renal): 7.47 µM | TGI (SN12C renal): > 100 µM | GI50 (HCT-116 colon): 415 nM | TGI (HCT-116 colon): 32.9 µM | GI50 (U251 CNS): 405 nM | TGI (U251 CNS): 22.6 µM | GI50 (SNB-19 CNS): 23.6 µM | TGI (SNB-19 CNS): > 100 µM | GI50 (SK-MEL-28 melanoma): > 32.8 µM | TGI (SK-MEL-28 melanoma): > 100 µM | GI50 (MALME-3M melanoma): 1060 nM | TGI (MALME-3M melanoma): > 83.9 µM | GI50 (SK-MEL-2 melanoma): > 37.1 µM | TGI (SK-MEL-2 melanoma): > 80.7 µM | GI50 (SF-268 CNS): 2820 nM | TGI (SF-268 CNS): > 95.7 µM | GI50 (KM12 colon): 381 nM | TGI (KM12 colon): 20.1 µM | GI50 (OVCAR-5 ovarian): 935 nM | TGI (OVCAR-5 ovarian): > 100 µM | GI50 (UACC-257 melanoma): 1900 nM | TGI (UACC-257 melanoma): > 51.1 µM | GI50 (HS 578T breast): 2250 nM | GI50 (MDA-MB-231 breast): 5.9 µM | TGI (MDA-MB-231 breast): > 93.1 µM | GI50 (SR leukemia): 81.9 µM | TGI (SR leukemia): > 100 µM
